From US11415493B2, “Detection of cells in a liquid sample” (DELTA INSTRUMENTS B.V., priority 2016, dated 2022)
Entries after “also recorded” stand apart in the source; their conditions may differ. Read-outs that look alike come from different tables or passages of the source.

Columns and labels:
bacteria in milk samples = assay: Individual bacterial count (IBC) in milk samples with different cell-impermeant dyes, flow cytometer; format: cell-based
Description: The nucleic acid dyes, Evagreen®, SYTOX® Green and Propidium iodide where tested against GelGreen™ (the reference method). […] Nucleic acid dyes Evagreen®, SYTOX® Green and propidium iodide were tested using the same staining and incubation conditions as for the reference method only differing in the type of dye comprised in the staining composition. Evagreen® was used at a concentration of 1.25 μM in the staining composition. SYTOX® Green and Propidium iodide were used at a concentration of 5 μM in the staining composition. Three different types of milk were used: Locally obtained raw bulk tank milk from a farm and dairy plant where collected at a local farmer. This milk is referred to as fresh raw milk and is not older than 24 hours. 24 hour and 48 hour old milk were obtained from a dairy plant. […] For this purpose E. coli was grown overnight (approx. 15 h) in TSB at 32° C. The dead bacterial where obtained by heating the grown E. coli at 110° C. for 10 minutes. An amount of 200 μl of E. coli (living or dead/damaged) is added to 45 ml fresh raw bulk milk. Both living and dead are from the same culture tube and exactly the same amount is put in the 45 ml Fresh raw milk. All the milk samples are kept at 4° C. until analyzed. […] Finally, the samples were analyzed on the flow cytometer and the fluorescent signals from the bacteria were detected and a count per unit volume was determined. […]

cells = settings: cited from earlier work
E. coli = assay: Staining E. coli culture with different nucleic acid dyes, flow cytometer counts (FL1FL2 region); format: cell-based, Escherichia coli
Description: First, an experiment was performed to confirm that bacterial counts obtained on the flow cytometer using GelGreen™ did correlate with traditional plate counts. For this, the Petrifilm method was selected (Standard Methods for Examination of Dairy Products 17th Edition 2004. Edited by H. M. Wehr and J. R. Frank. American Public Health Association, 800 I Street, NW, Washington D.C. 200001. Chapter 6.040), rather than a poured agar plate method, because of ease of use. Escherichia coil (E. coli) cultures were grown at 36° C. in Trypticase Soy Broth (TSB) in a culture tube. A staining composition was prepared as follows: The nucleic acid dye GelGreen™ (from Biotium) was diluted to 1× from the 10,000× commercially available stock, into Tris-buffered saline (100 mM Trizma base, 100 mM Trizma HCl, 150 mM NaCl, pH 8.5), which was preheated to 50° C. The used dilution of 1:10,000 of the GelGreen™ is in accordance with the manufacturer's recommendation for using GelGreen™ for the purpose it was intended for, namely staining DNA in an agarose gel. This is the dilution of GelGreen™ used in all the examples herein. The E. coli culture was removed from the 36° C. incubator and a small volume was diluted 1:100 into the preheated staining composition and incubated for approximately 4.5 min at 50° C. The stained E. coli was analyzed on the flow cytometer and the FL1 (Bandpass 531 nm (519-551)) and FL2 (Long pass >550 nm) fluorescence channels were used to identify the stained bacteria (FIGS. 1A and 1C). A rectangular region was defined around the positively stained cells identified as live cells in the FL1 versus FL2 2-dimensional correlation plot (FIG. 1B). A count per mL of the E. coli was obtained from the flow cytometry analysis. The E. coli culture was then diluted in TSB to obtain 3 different concentrations (1:10, 1:100 and 1:1000, respectively). The E. coli cultures were kept at 4° C. to minimize further growth until analysis. Each dilution of E. coli was stained with the GelGreen™ reagent, analyzed on the flow cytometer and counts for each dilution were obtained. Each E. coli culture was also appropriately diluted in Butterfield's PBS and 1 mL of the appropriately diluted culture was plated on Petrifilms in duplicate. The Petrifilms were placed in a 30° C. incubator, removed after 48 hrs and the colonies on each Petrifilm were counted using an automated colony counter. An average CFU/mL for each E. coli dilution was obtained. The Log of the flow cytometer bacterial counts using GelGreen™ was plotted versus the Log CFU counts from the Petrifilm (FIG. 2).
To show where the bacteria in the FL1 and FL2 signal plots can be expected, bacteria were first counted in the staining composition without adding any milk. A culture of E. coli were grown at 36° C. in Trypticase Soy Broth (TSB) in a culture tube. The nucleic acid dye GelGreen™ was diluted into Tris-buffered saline, at approximately pH 8.5, which was preheated to 50° C. The E. coli culture was removed from the 36° C. incubator and a small volume was diluted 1:100 into the preheated staining composition and incubated for approximately 4.5 min at 50° C. The stained E. coli was analyzed on the flow cytometer and the FL1 and FL2 fluorescence channels were used to identify the stained bacteria (FIG. 3A).
A culture of E. coli was grown at 36° C. in Trypticase Soy Broth (TSB), stained with GelGreen™ and counted on the flow cytometer (FIG. 5) as described in example 2. The E. coli culture was then kept at 4° C. until stained with other nucleic acid dyes. The nucleic acid dyes TOTO®-1 and SYBR® Safe (both from Thermo Fisher Scientific) were selected as alternatives. […] Both dyes have similar spectral properties to GelGreen™ and were diluted in Tris-buffered saline using the same dilution factor as GelGreen™. […]

bacteria in raw milk = assay: Initial staining of bacteria in raw milk diluted in saline buffer, flow cytometer; format: cell-based
Description: During initial work, raw milk was diluted in a buffer solution and the cell permeant nucleic acid stain SYTO® 9 was used to stain the bacteria contained in the milk. A flow cytometer, equipped with a 488 nm laser as the light source, forward and right angle scatter detectors, and three fluorescence detectors, was used to detect the fluorescence from labeled bacteria. The three fluorescence detectors in the flow cytometer in that initial experiment had the following optical filters; 527 nm Bandpass (FL1), 590 nm Bandpass (FL2), and a 630 nm Longpass (FL3). The flow cytometer utilizes a system that provides volumetric measurement of the sample analyzed and yields a count per unit volume. […] The conclusion was that the background fluorescent signal from the various components in raw milk, and the non-specific binding of the dye to these components, dominated the signal such that it was impossible to detect any bacteria-related fluorescence. Additionally the large scatter signals detected in flow cytometry from the milk fat globules, casein micelles and other components in the milk, prevented the use of forward and right angle scatter in the detection of bacteria. To prevent the background signal, the inventors of the present invention made an attempt to minimize such interference. […]

In the case of CC[N+](C)(CC)CCC[n+]1c(-c2ccccc2)c2cc(N)ccc2c2ccc(N)cc21.[I-].[I-] [Propidium iodide], the “usefulness as alternative dye for GelGreen in the method” value (bacteria in milk samples; conclusion over all milk samples) is given as “does not work”, the IBC counts (bacteria in milk samples; milk samples except milk spiked with E. coli and cooked, 68° C., 1 min, pH 10.6) is given as “Almost no IBC counts” and the cell membrane permeability (cells) is given as “only penetrates cell membranes of dead cells”.

In the case of CCCN1C=C/C(=C\c2sc3ccccc3[n+]2C)c2ccccc21 [SYBR® Safe], the cell membrane permeability (cells; property stated for the dye) is listed as “readily crosses the membrane of cells” and the “staining of E. coli” value (E. coli; Tris-buffered saline pH 8.5, room temperature (23° C.)) is listed as “does not need heating to stain E. coli”.

For CN1/C(=C/c2cc[n+](CCC[N+](C)(C)CCC[N+](C)(C)CCC[n+]3ccc(/C=C4\Sc5ccccc5N4C)c4ccccc43)c3ccccc23)Sc2ccccc21.[I-].[I-].[I-].[I-] [TOTO®-1], the cell membrane permeability (cells; property stated for the dye) is listed as “cell impermeant” and the “staining of E. coli” value (E. coli; Tris-buffered saline pH 8.5, 50° C., approximately 4.5 min) is listed as “minimal staining; also recorded: does not stain E. coli”.

In the case of SYTO® 9, the “fluorescence signals of raw milk with spiked bacteria” value (bacteria in raw milk) is reported as “identical to the fluorescence detected in raw milk without spiked bacteria”.
